Results published in patent publication US20170158807A1, “EPOXY RESIN COMPOSITION FOR ELECTRONIC MATERIAL, CURED PRODUCT THEREOF AND ELECTRONIC MEMBER” (DIC CORPORATION, priority 2014, published 2017).

Tests used:
[1] = Melt viscosity at 150° C. (ASTM D4287, ICI viscometer method); format: physicochemical; details: measurement temperature 150° C.
Description: 1) Melt viscosity at 150° C.: measured by the following apparatus according to ASTM D4287.
Apparatus name: MODEL CV-1S manufactured by Codex

[2] = Viscosity of the liquid epoxy resin; format: physicochemical; details: epoxy resin as obtained
Description: In a flask equipped with a thermometer, a dropping funnel, a condenser tube, and a stirrer, while being purged with nitrogen gas, 43 g of 2,4,4′-trihydroxybiphenyl, 295 g of epichlorohydrin, and 103 g of n-butanol were charged and dissolved. After the temperature was raised to 40° C., 53 g of a 48% by mass sodium hydroxide aqueous solution was added over 8 hours. The temperature was then further raised to 50° C., and the mixture was allowed to react for further 1 hour. After the completion of the reaction, 83 g of water was added, the mixture was allowed to stand, and then the lower layer was disposed. After that, unreacted epichlorohydrin was removed by distillation at 150° C. under reduced pressure. To the obtained crude epoxy resin, 118 g of methyl isobutyl ketone was added to dissolve the epoxy resin. To the solution, 67 g of a 10% by mass sodium hydroxide aqueous solution was further added, the mixture was allowed to react at 80° C. for 2 hours, and then washing with water was repeated three times until the pH of the washing liquid became neutral. Next, the system was dehydrated by azeotropic distillation, and subjected to microfiltration, followed by removing the solvent by distillation under reduced pressure, whereby 63 g of 2,4,4′-triglycidyloxybiphenyl (A-1) which was the target epoxy resin was obtained. […]

Row | melt viscosity [1] [dPa·s] | viscosity of liquid form [2] [Pa-s] | Structure (SMILES)
1 | 0.14 | 943 | c1cc(-c2ccc(OCC3CO3)cc2OCC2CO2)ccc1OCC1CO1 (stereo not shown) [Example A-1, 2,4,4′-triglycidyloxybiphenyl]
2 | 0.27 | – | c1cc(-c2cc(OCC3CO3)cc(OCC3CO3)c2)ccc1OCC1CO1 (stereo not shown) [Example A-2, 3,4′,5-triglycidyloxybiphenyl]

Row | Structure (SMILES) | melt viscosity [1] [dPa·s] | viscosity of liquid form [2] [Pa-s]
3 | c1c(OCC2CO2)cc(-c2cc(OCC3CO3)cc(OCC3CO3)c2)cc1OCC1CO1 (stereo not shown) [Example A-3, 3,3′,5,5′-tetraglycidyloxybiphenyl] | 0.57 | –
